Results from US9487749B2 (priority 2009, dated 2016).
“And” between values parts separate entries of the source, which are not always exact repeats. Equal entries are not always repeated.

Tests used:
E. coli = E. coli log growth in MSM supplemented Müller-Hinton media with or without NaCl; format: cell-based, Escherichia coli
Method: Standard Müller-Hinton media was compared to Müller-Hinton media supplemented with NaCl to the same level as the saline-based media of Example 4. […] Aliquots of each culture were taken at 24 and 48 hours, as well as 7 days.

[1] = tested on: Lactobacillus acidophilus; assay: Lactobacillus acidophilus milk growth in simulated gastric acid supplemented with MSM; format: cell-based; settings: for Log Growth of L. acidophilus in milk average / Log Growth of L. acidophilus in milk in duplicate: simulated gastric acid pH 1.2
[2] = tested on: Bifidobacterium bifidum ATCC #29521; assay: Bifidobacterium bifidum growth in media fortified with MSM, 96 hours; format: cell-based
[3] = tested on: Swine-like H1N1 Influenza A virus strain A/California/04/2009; format: cell-based

`CS(C)(=O)=O` [MSM, Methylsulfonylmethane] was tested, and the “log reduction in E. coli” value (E. coli; FMHS media, 12% MSM, 7 days) was 3 log, the “reduction of E. coli growth” value (E. coli; MSM concentrations greater than 13%, 48 hours) was 1-2 logs and the “Log growth of E. coli” value (E. coli; after 24 hours, FMH (flaked MSM, Müller-Hinton), rows 16-5% MSM) was 6.2 log. The “log reduction from the initial inoculum” value (E. coli; all media, MSM concentrations greater than 13%, 24 hours) was “approximately 1 log”, the “increase in log growth from previous time point” value ([1]; 5.0% MSM, 24 hours) was 0.23 logs and the “decrease in log growth from previous time point” value (shortened to “decrease in log growth”) ([1]; 5.0% MSM, Hour 48) was 0.33 logs. For the same molecule, the “Log Growth of L. acidophilus in milk average” value (from here on “Log Growth … in milk average”) ([1]; 5% MSM, hour 0) was 0.41 log, the “Log Growth … in milk average” value ([1]; 5% MSM, hour 3) was 0.41 log and the “Log Growth of L. acidophilus in milk in duplicate” value (from here on “Log Growth … in duplicate”) ([1]; 5% MSM, hour 6) was 0.82 log and 1 log. For the same molecule, the “Log Growth … in milk average” value ([1]; 5% MSM, hour 6) was 0.91 log, the “Log Growth … in duplicate” value ([1]; 5% MSM, hour 9) was 0.52 log and the “Log Growth … in milk average” value ([1]; 5% MSM, hour 9) was 0.52 log. The “Log Growth … in milk average” value ([1]; 5% MSM, hour 12) was 1.10 log, the “Log Growth … in duplicate” value ([1]; 5% MSM, hour 15) was 1.43 log and the “Log Growth … in milk average” value ([1]; 5% MSM, hour 15) was 1.43 log. For the same molecule, the “Log Growth … in duplicate” value ([1]; 5% MSM, hour 24) was 1.67 log and 1.64 log, the “Log Growth … in milk average” value ([1]; 5% MSM, hour 24) was 1.66 log and the “Log Growth … in duplicate” value ([1]; 5% MSM, hour 48) was 1.22 log and 1.43 log. For the same molecule, the “Log Growth … in milk average” value ([1]; 5% MSM, hour 48) was 1.33 log, the “log growth higher than control” value ([1]; 5.0% MSM, listed as order: hour 15, maximum vs control maximum) was 0.45 logs and 0.68 logs and the “increase in log growth from previous time point” value ([1]; […] MSM (so in the source), 24 hours) was 0.30 logs. The “decrease in log growth” value ([1]; […] MSM, 24 hours) was 0.11 logs, the “decrease in log growth” value ([1]; […] MSM, Hour 48) was 0.38 logs and the “Log Growth … in duplicate” value ([1]; […] MSM, hour 0) was 0 log. For the same molecule, the “Log Growth … in milk average” value ([1]; […] MSM, hour 0) was 0 log, the “Log Growth … in milk average” value ([1]; […] MSM, hour 9) was 0.41 log and the “increase in logs from hour 15 to 24” value ([1]; […] and 5.0% MSM) was no less than 0.24 logs. The “Log Growth of Bifidobacteruim bifidum in Media Fortified with MSM” value (shortened to “Log Growth of Bifidobacteruim bifidum”) ([2]; 0.125% MSM, Hr 0) was 1.12 log, the “Log Growth of Bifidobacteruim bifidum” value ([2]; 0.125% MSM, Hr 8) was 2.89 log and the “Log Growth of Bifidobacteruim bifidum” value ([2]; 0.125% MSM, Hr 16) was 7.85 log. For the same molecule, the “Log Growth of Bifidobacteruim bifidum” value ([2]; 0.125% MSM, Hr 24) was 9.06 log, the “Log Growth of Bifidobacteruim bifidum” value ([2]; 0.125% MSM, Hr 32) was 11.45 log and the “Log Growth of Bifidobacteruim bifidum” value ([2]; 0.125% MSM, Hr 40) was 10.80 log. For the same molecule, the “Log Growth of Bifidobacteruim bifidum” value ([2]; 0.125% MSM, Hr 48) was 8.22 log, the “Log Growth of Bifidobacteruim bifidum” value ([2]; 0.125% MSM, Hr 56) was 7.25 log and the “Log Growth of Bifidobacteruim bifidum” value ([2]; 0.125% MSM, Hr 64) was 8.86 log. For the same molecule, the “Log Growth of Bifidobacteruim bifidum” value ([2]; 0.125% MSM, Hr 72) was 6.59 log, the “Log Growth of Bifidobacteruim bifidum” value ([2]; 0.125% MSM, Hr 80) was 9.12 log and the “Log Growth of Bifidobacteruim bifidum” value ([2]; 0.125% MSM, Hr 88) was 9.12 log. For the same molecule, the “Log Growth of Bifidobacteruim bifidum” value ([2]; 0.125% MSM, Hr 96) was less than 6.00 log, the “logs higher than the maximum of the control” value ([2]; 0.5% MSM) was 0.5 logs and the “logs higher than the control” value ([2]; 0.5% MSM, hour 96) was “approximately 2 logs”. The logs of growth ([2]; 0.5% MSM, hour 96) was 8.82 logs, the “Log Growth of Bifidobacteruim bifidum” value ([2]; 0.5% MSM, Hr 0) was 1.00 log and the “Log Growth of Bifidobacteruim bifidum” value ([2]; 0.5% MSM, Hr 8) was 2.84 log. The “Log Growth of Bifidobacteruim bifidum” value ([2]; 0.5% MSM, Hr 16) was 7.45 log, the “Log Growth of Bifidobacteruim bifidum” value ([2]; 0.5% MSM, Hr 24) was 8.81 log and the “Log Growth of Bifidobacteruim bifidum” value ([2]; 0.5% MSM, Hr 32) was 11.22 log. The “Log Growth of Bifidobacteruim bifidum” value ([2]; 0.5% MSM, Hr 40) was 12.09 log, the “Log Growth of Bifidobacteruim bifidum” value ([2]; 0.5% MSM, Hr 48) was 9.39 log and the “Log Growth of Bifidobacteruim bifidum” value ([2]; 0.5% MSM, Hr 56) was 9.51 log. For the same molecule, the “Log Growth of Bifidobacteruim bifidum” value ([2]; 0.5% MSM, Hr 64) was 10.34 log, the “Log Growth of Bifidobacteruim bifidum” value ([2]; 0.5% MSM, Hr 72) was 8.35 log and the “Log Growth of Bifidobacteruim bifidum” value ([2]; 0.5% MSM, Hr 80) was 10.38 log. The “Log Growth of Bifidobacteruim bifidum” value ([2]; 0.5% MSM, Hr 88) was 9.70 log, the “Log Growth of Bifidobacteruim bifidum” value ([2]; 0.5% MSM, Hr 96) was 8.82 log and the “logs of growth (estimated, outside the countable range)” value ([2]; 1% MSM, Hour 96) was “less than 6 logs”. The “Log Growth of Bifidobacteruim bifidum” value ([2]; 1% MSM, Hr 0) was 1.00 log, the “Log Growth of Bifidobacteruim bifidum” value ([2]; 1% MSM, Hr 8) was 2.73 log and the “Log Growth of Bifidobacteruim bifidum” value ([2]; 1% MSM, Hr 16) was 7.73 log. The “Log Growth of Bifidobacteruim bifidum” value ([2]; 1% MSM, Hr 24) was 8.81 log, the “Log Growth of Bifidobacteruim bifidum” value ([2]; 1% MSM, Hr 32) was 11.49 log and the “Log Growth of Bifidobacteruim bifidum” value ([2]; 1% MSM, Hr 40) was 11.19 log. For the same molecule, the “Log Growth of Bifidobacteruim bifidum” value ([2]; 1% MSM, Hr 48) was 10.43 log, the “Log Growth of Bifidobacteruim bifidum” value ([2]; 1% MSM, Hr 56) was 10.57 log and the “Log Growth of Bifidobacteruim bifidum” value ([2]; 1% MSM, Hr 64) was 10.66 log. The “Log Growth of Bifidobacteruim bifidum” value ([2]; 1% MSM, Hr 72) was 8.34 log, the “Log Growth of Bifidobacteruim bifidum” value ([2]; 1% MSM, Hr 80) was 9.43 log and the “Log Growth of Bifidobacteruim bifidum” value ([2]; 1% MSM, Hr 88) was 10.41 log. For the same molecule, the “Log Growth of Bifidobacteruim bifidum” value ([2]; 1% MSM, Hr 96) was less than 6.00 log, the “log increase of growth” value ([2]; 1% MSM, listed as order: Hour 80, Hour 88) was 1 log and the “extension of the stationary phase” value ([2]; 5% MSM) was 40 h. For the same molecule, the “logs lower than the control” value ([2]; 5% MSM, Hour 48) was 0.7 logs, the “Log Growth of Bifidobacteruim bifidum” value ([2]; 5% MSM, Hr 0) was 1.12 log and the “Log Growth of Bifidobacteruim bifidum” value ([2]; 5% MSM, Hr 8) was 2.04 log. The “Log Growth of Bifidobacteruim bifidum” value ([2]; 5% MSM, Hr 16) was 6.10 log, the “Log Growth of Bifidobacteruim bifidum” value ([2]; 5% MSM, Hr 24) was 8.43 log and the “Log Growth of Bifidobacteruim bifidum” value ([2]; 5% MSM, Hr 32) was 11.13 log. For the same molecule, the “Log Growth of Bifidobacteruim bifidum” value ([2]; 5% MSM, Hr 40) was 11.78 log, the “Log Growth of Bifidobacteruim bifidum” value ([2]; 5% MSM, Hr 48) was 10.70 log and the “Log Growth of Bifidobacteruim bifidum” value ([2]; 5% MSM, Hr 56) was 10.59 log. The “Log Growth of Bifidobacteruim bifidum” value ([2]; 5% MSM, Hr 64) was 14.32 log, the “Log Growth of Bifidobacteruim bifidum” value ([2]; 5% MSM, Hr 72) was 8.65 log and the “Log Growth of Bifidobacteruim bifidum” value ([2]; 5% MSM, Hr 80) was 12.20 log. For the same molecule, the “Log Growth of Bifidobacteruim bifidum” value ([2]; 5% MSM, Hr 88) was 12.31 log, the “Log Growth of Bifidobacteruim bifidum” value ([2]; 5% MSM, Hr 96) was 9.60 log and the “log increase of growth” value ([2]; […] MSM, Hour 88) was 1 log. For the same molecule, the “logs higher than the maximum of the control” value ([2]; […] MSM, maximum) was 0.72 logs, the “Log Growth of Bifidobacteruim bifidum” value ([2]; […] MSM, Hr 96) was less than 6.00 log and the “logs higher in growth rate compared to the control” value ([2]; […] MSM, listed as order: hour 40, Hour 56 to hour 72) was 0.7 logs. For the same molecule, the “maximum growth reached before the control” value ([2]; all MSM concentrations (hour 32 vs hour 48)) was 16 h, the “Average Log Stimulation” value [3] was 0.17 log10 and the “Average Percent Stimulation” value [3] was 32.39%. The “Average TCID50” value [3] was 3.67 log10 and 4.42 log10 and 4.67 log10 and 5.00 log10 and 4.58 log10 and 4.17 log10, the “Log Stimulation” value [3] was 0.17 log10 and the “Percent Stimulation” value [3] was 32.39%. For the same molecule, the TCID50 [3] was 3.75 log10 and 3.50 log10 and 4.00 log10 and 4.50 log10 and 4.25 log10 and 4.75 log10 and 5.00 log10, the “log10 reduction” value [3] was 0.66 log10 and 0.41 log10 and the “reduction of virus population” value [3] was “more than 1.0 log10”.
